Source: patent US10633394B2, “Heterocyclic derivatives and use thereof” (C & C RESEARCH LABORATORIES, priority 2014, dated 2020)

Experiments:
Format in all cases: cell-based
NCI-N87 = experiment: Cell growth inhibition assay (CellTiter-Glo), stomach cancer cell line NCI-N87; conditions: Homo sapiens; NCI-N87 cells, 96 hours
Method: (§1) The inhibitory effects of the compounds of the present invention against the growth of cancer cells were evaluated as shown below. The cancer cell lines including stomach cancer cell line (NCI-N87) and breast cancer cell line (MDA-MB-468) were cultured under the protocol provided by each supplier. Each type of cells to be used in experiments was sub-cultured in a 96-well plate by counting the exact number of cells using Tali™ Image-based Cytometer (Life Technologies). In a 96-well plate, NCI-N87 was employed with 5,000 cells/well; and MDA-MB-468 was employed with 10,000 cells/well. The cells were treated with the compounds listed in Examples which were diluted in various concentrations. Upon completion of the compounds treatment, NCI-N87 cells were cultured at 37° C. under 5% CO2 for 96 hours, and MDA-MB-468 cells were cultured at 37° C. in air for 96 hours. Subsequently, the cells were observed under microscope and drug precipitation and particular findings were investigated and recorded. And then, the 96-well plate was placed at room temperature for 30 minutes, added with 20 μL/well of CellTiter-Glo solution (Cat No. G7573, Promega) and shaken for 10 minutes, followed by being subjected to the measurement using PHERAstar™ microplate reader (BMG LABTECH) according to the supplier's general luminometer protocol. Wells where only culture liquid added without cell plating were used as a negative control, whereas wells where culture liquid containing 0.1% DMSO instead of the compounds listed in Examples were used as a positive control.

STAT3 = target: T1, STAT3 (Homo sapiens, UniProt P40763); experiment: STAT3 reporter gene (luciferase) assay in LNCaP stable cell line stimulated with IL-6; conditions: LNCaP stable cell line (pSTAT3-TA-luc), IL-6 10 ng/mL, 24 hours
T1 construct: plasmid pSTAT3-TA-luc), which contains a stably operating STAT3 promoter; endogenous in cells
T1 sequence (P40763 whole entry): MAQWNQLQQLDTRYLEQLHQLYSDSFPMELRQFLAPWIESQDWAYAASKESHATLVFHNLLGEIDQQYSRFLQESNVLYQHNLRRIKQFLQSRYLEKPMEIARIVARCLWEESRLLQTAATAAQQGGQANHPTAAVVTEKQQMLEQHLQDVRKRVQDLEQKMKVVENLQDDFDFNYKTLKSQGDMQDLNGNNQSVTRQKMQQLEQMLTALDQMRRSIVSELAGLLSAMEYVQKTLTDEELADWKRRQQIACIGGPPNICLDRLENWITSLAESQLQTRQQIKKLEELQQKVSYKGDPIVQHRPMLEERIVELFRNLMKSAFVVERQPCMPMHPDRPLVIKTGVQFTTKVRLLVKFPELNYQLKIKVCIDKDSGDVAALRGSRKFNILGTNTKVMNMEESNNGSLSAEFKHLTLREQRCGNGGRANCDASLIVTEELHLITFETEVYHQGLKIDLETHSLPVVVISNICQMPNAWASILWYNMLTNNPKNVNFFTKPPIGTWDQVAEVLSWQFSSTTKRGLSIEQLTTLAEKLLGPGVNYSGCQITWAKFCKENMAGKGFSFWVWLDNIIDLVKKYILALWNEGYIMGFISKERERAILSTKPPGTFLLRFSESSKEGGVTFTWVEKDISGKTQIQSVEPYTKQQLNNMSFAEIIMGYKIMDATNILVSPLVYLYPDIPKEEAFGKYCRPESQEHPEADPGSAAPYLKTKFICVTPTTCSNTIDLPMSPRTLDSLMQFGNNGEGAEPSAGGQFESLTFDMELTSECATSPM
Method: 1-1) Experiment on the Inhibition of STAT3 Activity
A human prostate cancer cell line (LNCaP stable cell line; plasmid pSTAT3-TA-luc), which contains a stably operating STAT3 promoter, was cultured in RPMI1640 medium (Cat No. 11875, Life Technologies) containing 10% fetal bovine serum (FBS) (Cat No. SH30396, Thermo Scientific) and 150 μg/mL G-418 solution (Cat No. 04 727 894 001, Roche). The reporter gene assay using LNCaP stable cell line was performed in RPMI1640 medium containing 3% DCC-FBS without G-418 solution. LNCaP stable cells were plated in two (2) white 96-well plates with 30,000 cells/50 μL in each well. The cells were cultured at 37° C., under 5% CO2 for 24 hours, and then treated with the compounds listed in Examples which were diluted in various concentrations. Subsequently, IL-6 was added to each well with a final concentration of 10 ng/mL. Upon completion of the treatment with the compounds and IL-6, the cells were cultured at 37° C., under 5% CO2 for 24 hours. The plates were observed under microscope and drug precipitation and particular findings were investigated and recorded.
The luciferase assay and the cell viability assay were performed respectively with one of the two plates. For the luciferase assay, the liquid media in the 96-well plate was removed, and then, 20 μL of passive cell lysis buffer was added to each well. After shaking the plate for 30 minutes, luciferase activities of each well were measured in a PHERAstar™ microplate reader (BMG LABTECH) using a luciferase assay system (Cat No. E1501, Promega). For the cell viability assay, the 96-well plate was placed at room temperature for 30 minutes, added with 20 μL/well of CellTiter-Glo solution (Cat No. G7573, Promega), and shaken for 10 minutes in order to measure cytotoxicity caused by the compounds listed in Examples with a PHERAstar™ microplate reader (BMG LABTECH). Wells without 0.1% DMSO and stimulation were used as a negative control and wells with 0.1% DMSO and stimulation were used as a positive control.
The results of evaluation on the inhibitory effect of the compounds listed in the Examples on the dimerization of STAT3 and STAT1 obtained via the STAT3 and STAT1 reporter gene assays are shown in Table 6 below.

MDA-MB-468 = experiment: Cell growth inhibition assay (CellTiter-Glo), breast cancer cell line MDA-MB-468; conditions: Homo sapiens; MDA-MB-468 cells, 96 hours
Method: as §1

Row | IC50 (NCI-N87) | IC50 (STAT3) | IC50 (MDA-MB-468) | Structure (SMILES)
1 | 0.018 µM | 0.011 µM | 0.0051 µM | Cc1cc(Cl)ccc1Oc1cc(NC(=O)c2cc3cc4c(cc3s2)OCCC4S(C)(=O)=O)cc(Cl)n1 (stereo not drawn) [Example 21, N-(2-chloro-6-(4-chloro-2-methylphenoxy)pyridin-4-yl)-4-(methylsulfonyl)-3,4-dihydro-2H-thieno[3,2-g]chromene-7-carboxamide]
2 | 0.025 µM | 0.02 µM | 0.0085 µM | COc1cc(Cl)cc(Oc2cc(NC(=O)c3cc4cc5c(cc4s3)OCCC5S(C)(=O)=O)cc(Cl)n2)c1 (stereo not drawn) [Example 30, N-(2-chloro-6-(3-chloro-5-methoxyphenoxy)pyridin-4-yl)-4-(methylsulfonyl)-3,4-dihydro-2H-thieno[3,2-g]chromene-7-carboxamide]
3 | 0.0018 µM | 0.003 µM | 0.0028 µM | CS(=O)(=O)C1COCc2cc3sc(C(=O)Nc4cc(Cl)nc(Oc5ccc(Cl)cc5)c4)cc3cc21 (stereo not drawn) [Example 12, N-(2-chloro-6-(4-chlorophenoxy)pyridin-4-yl)-5-(methylsulfonyl)-5,8-dihydro-6H-thieno[3,2-g]isochromene-2-carboxamide]
4 | 0.0056 µM | 0.0039 µM | 0.0025 µM | CS(=O)(=O)[C@@]1(F)CCOc2cc3sc(C(=O)Nc4cc(Cl)nc(Oc5ccc(Cl)cc5)c4)cc3cc21 [Example 45, (S)—N-(2-chloro-6-(4-chlorophenoxy)pyridin-4-yl)-4-fluoro-4-(methylsulfonyl)-3,4-dihydro-2H-thieno[3,2-g]chromene-7-carboxamide]
5 | 0.0072 µM | 0.0073 µM | 0.0046 µM | CS(=O)(=O)C1CCOc2cc3sc(C(=O)Nc4cc(Cl)nc(Oc5ccc(F)cc5)c4)cc3cc21 (stereo not drawn) [Example 26, N-(2-chloro-6-(4-fluorophenoxy)pyridin-4-yl)-4-(methylsulfonyl)-3,4-dihydro-2H-thieno[3,2-g]chromene-7-carboxamide]
6 | 0.2 µM | 0.1 µM | 0.05 µM | CS(=O)(=O)C1CCC(=O)c2cc3sc(C(=O)Nc4cc(Cl)nc(Oc5ccc(Cl)cc5)c4)cc3cc21 (stereo not drawn) [Example 51, N-(2-chloro-6-(4-chlorophenoxy)pyridin-4-yl)-5-(methylsulfonyl)-8-oxo-5,6,7,8-tetrahydronaphtho[2,3-b]thiophene-2-carboxamide]
7 | 1.8 µM | 1.5 µM | 0.086 µM | CS(=O)(=O)[C@@H]1CCOc2cc3sc(C(=O)Nc4cc(Cl)nc(Oc5ccc(Cl)cc5)c4)cc3cc21 [Example 44, (R)—N-(2-chloro-6-(4-chlorophenoxy)pyridin-4-yl)-4-(methylsulfonyl)-3,4-dihydro-2H-thieno[3,2-g]chromene-7-carboxamide]
8 | 0.79 µM | 0.15 µM | > 0.1 µM | C[C@@]1(S(C)(=O)=O)CCOc2cc3sc(C(=O)Nc4cc(Cl)nc(Oc5ccc(Cl)cc5)c4)cc3cc21 [Example 48, (R)—N-(2-chloro-6-(4-chlorophenoxy)pyridin-4-yl)-4-methyl-4-(methylsulfonyl)-3,4-dihydro-2H-thieno[3,2-g]chromene-7-carboxamide]
9 | 0.0092 µM | 0.0064 µM | 0.0023 µM | CS(=O)(=O)C1CCOc2cc3sc(C(=O)Nc4cc(Cl)nc(Oc5ccc(F)c(F)c5)c4)cc3cc21 (stereo not drawn) [Example 34, N-(2-chloro-6-(3,4-difluorophenoxy)pyridin-4-yl)-4-(methylsulfonyl)-3,4-dihydro-2H-thieno[3,2-g]chromene-7-carboxamide]
10 | 0.02 µM | 0.015 µM | 0.0043 µM | CS(=O)(=O)C1CCOc2cc3sc(C(=O)Nc4cc(Cl)nc(Oc5cc(Cl)cc(Cl)c5)c4)cc3cc21 (stereo not drawn) [Example 18, N-(2-chloro-6-(3,5-dichlorophenoxy)pyridin-4-yl)-4-(methylsulfonyl)-3,4-dihydro-2H-thieno[3,2-g]chromene-7-carboxamide]
11 | 0.16 µM | 0.029 µM | 0.026 µM | CS(=O)(=O)C1CCC(F)(F)c2cc3sc(C(=O)Nc4cc(Cl)nc(Oc5ccc(Cl)cc5)c4)cc3cc21 (stereo not drawn) [Example 14, N-(2-chloro-6-(4-chlorophenoxy)pyridin-4-yl)-8,8-difluoro-5-(methylsulfonyl)-5,6,7,8-tetrahydronaphtho[2,3-b]thiophene-2-carboxamide]
12 | 0.009 µM | 0.008 µM | 0.0022 µM | CS(=O)(=O)C1CCOc2cc3sc(C(=O)Nc4cc(Cl)nc(Oc5cc(F)cc(Cl)c5)c4)cc3cc21 (stereo not drawn) [Example 31, N-(2-chloro-6-(3-chloro-5-fluorophenoxy)pyridin-4-yl)-4-(methylsulfonyl)-3,4-dihydro-2H-thieno[3,2-g]chromene-7-carboxamide]
13 | 0.006 µM | 0.0026 µM | 0.0019 µM | CS(=O)(=O)C1CCCc2cc3sc(C(=O)Nc4cc(Cl)nc(Oc5ccc(Cl)cc5)c4)cc3cc21 (stereo not drawn) [Example 10, N-(2-chloro-6-(4-chlorophenoxy)pyridin-4-yl)-5-(methylsulfonyl)-5,6,7,8-tetrahydronaphtho[2,3-b]thiophene-2-carboxamide]
14 | 0.021 µM | 0.0051 µM | 0.0039 µM | CS(=O)(=O)C1CCOc2cc3sc(C(=O)Nc4cc(Cl)nc(Oc5cccc(C(F)(F)F)c5)c4)cc3cc21 (stereo not drawn) [Example 16, N-(2-chloro-6-(3-(trifluoromethyl)phenoxy)pyridin-4-yl)-4-(methylsulfonyl)-3,4-dihydro-2H-thieno[3,2-g]chromene-7-carboxamide]
15 | 0.0094 µM | 0.01 µM | 0.0024 µM | Cc1cc(Oc2cc(NC(=O)c3cc4cc5c(cc4s3)OCCC5S(C)(=O)=O)cc(Cl)n2)ccc1Cl (stereo not drawn) [Example 20, N-(2-chloro-6-(4-chloro-3-methylphenoxy)pyridin-4-yl)-4-(methylsulfonyl)-3,4-dihydro-2H-thieno[3,2-g]chromene-7-carboxamide]
16 | 0.32 µM | 0.18 µM | 0.075 µM | N#CC1CCOc2cc3sc(C(=O)Nc4cc(Cl)nc(Oc5ccc(Cl)cc5)c4)cc3cc21 (stereo not drawn) [Example 54, N-(2-chloro-6-(4-chlorophenoxy)pyridin-4-yl)-4-cyano-3,4-dihydro-2H-thieno[3,2-g]chromene-7-carboxamide]
17 | 0.0046 µM | 0.0059 µM | 0.0029 µM | CS(=O)(=O)C1CCOc2cc3sc(C(=O)Nc4cc(Cl)nc(Oc5cccc(OC(F)(F)F)c5)c4)cc3cc21 (stereo not drawn) [Example 29, N-(2-chloro-6-(3-(trifluoromethoxy)phenoxy)pyridin-4-yl)-4-(methylsulfonyl)-3,4-dihydro-2H-thieno[3,2-g]chromene-7-carboxamide]
18 | 0.01 µM | 0.011 µM | 0.0049 µM | CS(=O)(=O)C1CCOc2cc3sc(C(=O)Nc4cc(Cl)nc(Oc5cccc(Cl)c5)c4)cc3cc21 (stereo not drawn) [Example 25, N-(2-chloro-6-(3-chlorophenoxy)pyridin-4-yl)-4-(methylsulfonyl)-3,4-dihydro-2H-thieno[3,2-g]chromene-7-carboxamide]
19 | 0.56 µM | 0.14 µM | > 0.1 µM | CS(=O)(=O)[C@]1(F)CCOc2cc3sc(C(=O)Nc4cc(Cl)nc(Oc5ccc(Cl)cc5)c4)cc3cc21 [Example 46, (R)—N-(2-chloro-6-(4-chlorophenoxy)pyridin-4-yl)-4-fluoro-4-(methylsulfonyl)-3,4-dihydro-2H-thieno[3,2-g]chromene-7-carboxamide]
